Measured values from PMC6268995, “(E)-5-Styryl-1H-indole and (E)-6-Styrylquinoline Derivatives Serve as Probes for β-Amyloid Plaques” (Molecules, 2012).
“Also recorded” adds a separate entry of the source. Read-outs that look alike come from different tables or passages of the source.

Key:
[1] = biological target: T1, Aβ1–40 aggregates (Homo sapiens, UniProt P05067); assay: Competition binding assay on Aβ1–40 aggregates using [125I]TZDM as radio-ligand; settings: Aβ1–40 aggregates against [125I]TZDM; triplicate, mean ± SD
T1 construct: β-amyloid(1–40) were purchased from AnaSpec; purchased AnaSpec (San Jose, CA, USA)
T1 sequence (P05067 672-711 limits assumed): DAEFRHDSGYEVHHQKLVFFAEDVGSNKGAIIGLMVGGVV
Experimental: The lyophilized white powder of β-amyloid(1–40) were purchased from AnaSpec (San Jose, CA, USA). After reconstituted by adding basic buffer (1% NH4OH. 60–70 μL) to β-amyloid (1–40) (1 mg) aggregation of Aβ1–40 was carried out by gently dissolving Aβ1–40 (0.25 mg/mL) in a PBS buffer (pH 7.4). The solution was incubated at 37 °C for 72 h with gentle and constant shaking. Binding studies were carried out according to the procedure described previously with some modifications using [^125I]TZDM as the radiolabeled standard. […] The mixture was incubated at 37 °C for 2 h. […] Filters containing the bound ^125I ligand were counted in a γ-counter (WALLAC Wizard 1470, PerkinElmer Life Sciences, Waltham, MA, USA) with 75% counting efﬁciency. The IC50 values were determined using GraphPad Prism 5.0, and those for the inhibition constant (Ki) were calculated using the Cheng Prusoff equation: Ki = IC50/(1 + [L]/Kd).

[2] = biological target: T1, Aβ1–40 aggregates; set-up: method as in PMID 11384236; settings: literature value ref 21; cited from earlier work
[3] = biological target: Aβ plaques (Homo sapiens, UniProt P05067); assay: In vitro labeling of brain sections from transgenic mouse by autoradiography; type: binding, transgenic model mouse (APP/PS1); settings: APP/PS1, 12 months, male
Aβ plaques, sequence (P05067 672-711 limits assumed): as above
Experimental: The brain sections mentioned above were incubated with [^125I]8 (5 µCi/100µL) for about 20 min at room temperature. Then the sections were washed with saturated Li2CO3 in 40% EtOH for 3 min and 40% EtOH for 3 min, followed by rinsing with water for 30 s. After drying, the ^125I-labeled sections were exposed to phosphorus ﬁlm for 8 h and then scanned with the phosphor imaging system (Cyclone, Packard) at the resolution of 600 dpi. The presence and localization of plaques were confirmed by the ﬂuorescent staining with thioﬂavin-S on the same sections using a Stereo Discovery V12 (Zeiss) instrument equipped with a LP 505 filter set (excitation: 405 nm).

[4] = Partition coefficient determination (n-octanol/PBS); type: physicochemical; settings: n-octanol / PBS 0.02 M, pH 7.4
Experimental: The determination of partition coefﬁcients of [^125I]8 and [^125I]17 was performed according to the procedure previously reported with some modifications. Ligand [^125I]8 or [^125I]17 (~5 μCi) was mixed with 3 mL each of n-octanol and PBS (0.02 M, pH 7.4) in a test tube. The test tube was vortexed for 5 min at room temperature, followed by centrifugation for 10 min at 3,000 rpm. Two weighed samples from the n-octanol (50 µL) and buffer layers (400 µL) were counted in a γ-counter. The partition coefﬁcient was expressed as the logarithm of the ratio of the counts per gram from n-octanol versus that of PBS. Samples from the n-octanol layer were repartitioned until consistent partition coefﬁcient values were obtained. The measurements were done in triplicate and repeated three times.

[5] = In vivo biodistribution in normal mice; set-up: species or system KunMing normal mice; settings: for Biodistribution Blood / Biodistribution Brain / Biodistribution Heart / Biodistribution Kidney / Biodistribution Liver / Biodistribution Lung / Biodistribution Muscle / Biodistribution Spleen / Biodistribution Stomach: iv injection
Experimental: In vivo biodistribution studies were performed in KunMing normal mice (female, average weight 18–22 g) and in accordance with the national laws related to the care and experiments on laboratory animal. A saline solution (100 µL) containing [^125I]8 or [^125I]17 (1 µCi) was injected directly into the tail vein of mice. The mice (n = 5 for each time point) were sacriﬁced at designated time points post-injection. The organs of interest were removed and weighed, and the radioactivity was counted with an automatic γ-counter (WALLAC Wizard 1470).

In the case of CN(C)c1ccc(-c2nc3ccc(I)cc3s2)cc1 [TZDM, reference compound], the Ki [1] is listed as 4.2 ± 0.4 nM and the Ki [2] is listed as 0.9 ± 0.2 nM.
For [125I]c1ccc(/C=C/c2ccc3[nH]ccc3c2)cc1 [[^125I]8], the “Autoradiography labeling of Aβ plaques” value [3] was “intense and specific labeling of Aβ plaques; also recorded: excellent labeling of Aβ plaques in the cortex region; also recorded: clearly labeled amyloid plaques in the cortex region”, the logD [4] was 2.52 and the brain2min/brain60min ratio ([5]; index of washout rate from normal brain) was 15.3. The “Biodistribution Blood” value ([5]; 2 min) was 11.91 ± 0.62 % ID/g, the “Biodistribution Brain” value ([5]; 2 min) was 4.27 ± 0.49 % ID/g and the “Biodistribution Heart” value ([5]; 2 min) was 5.76 ± 0.38 % ID/g. For the same compound, the “Biodistribution Kidney” value ([5]; 2 min) was 11.66 ± 1.52 % ID/g, the “Biodistribution Liver” value ([5]; 2 min) was 14.73 ± 0.66 % ID/g and the “Biodistribution Lung” value ([5]; 2 min) was 10.76 ± 0.63 % ID/g. For the same compound, the “Biodistribution Muscle” value ([5]; 2 min) was 2.64 ± 0.40 % ID/g, the “Biodistribution Spleen” value ([5]; 2 min) was 4.38 ± 0.33 % ID/g and the “Biodistribution Stomach” value ([5]; 2 min) was 1.23 ± 0.56 % ID/organ. The “Biodistribution Blood” value ([5]; 15 min) was 12.29 ± 1.30 % ID/g, the “Biodistribution Brain” value ([5]; 15 min) was 1.37 ± 0.16 % ID/g and the “Biodistribution Heart” value ([5]; 15 min) was 3.70 ± 0.40 % ID/g. For the same compound, the “Biodistribution Kidney” value ([5]; 15 min) was 14.89 ± 4.23 % ID/g, the “Biodistribution Liver” value ([5]; 15 min) was 10.66 ± 0.31 % ID/g and the “Biodistribution Lung” value ([5]; 15 min) was 8.22 ± 0.88 % ID/g. For the same compound, the “Biodistribution Muscle” value ([5]; 15 min) was 2.01 ± 0.24 % ID/g, the “Biodistribution Spleen” value ([5]; 15 min) was 4.21 ± 0.26 % ID/g and the “Biodistribution Stomach” value ([5]; 15 min) was 4.82 ± 0.46 % ID/organ. The “Biodistribution Blood” value ([5]; 30 min) was 7.64 ± 0.62 % ID/g, the “Biodistribution Brain” value ([5]; 30 min) was 0.64 ± 0.11 % ID/g and the “Biodistribution Heart” value ([5]; 30 min) was 2.55 ± 0.52 % ID/g. For the same compound, the “Biodistribution Kidney” value ([5]; 30 min) was 9.46 ± 1.95 % ID/g, the “Biodistribution Liver” value ([5]; 30 min) was 7.14 ± 1.13 % ID/g and the “Biodistribution Lung” value ([5]; 30 min) was 5.39 ± 0.83 % ID/g. For the same compound, the “Biodistribution Muscle” value ([5]; 30 min) was 1.25 ± 0.04 % ID/g, the “Biodistribution Spleen” value ([5]; 30 min) was 3.44 ± 0.21 % ID/g and the “Biodistribution Stomach” value ([5]; 30 min) was 3.50 ± 0.19 % ID/organ. For the same compound, the “Biodistribution Blood” value ([5]; 60 min) was 4.49 ± 0.28 % ID/g, the “Biodistribution Brain” value ([5]; 60 min) was 0.28 ± 0.06 % ID/g and the “Biodistribution Heart” value ([5]; 60 min) was 1.59 ± 0.28 % ID/g. For the same compound, the “Biodistribution Kidney” value ([5]; 60 min) was 4.65 ± 0.98 % ID/g, the “Biodistribution Liver” value ([5]; 60 min) was 4.45 ± 0.23 % ID/g and the “Biodistribution Lung” value ([5]; 60 min) was 3.28 ± 0.10 % ID/g. For the same compound, the “Biodistribution Muscle” value ([5]; 60 min) was 0.81 ± 0.12 % ID/g, the “Biodistribution Spleen” value ([5]; 60 min) was 2.44 ± 0.12 % ID/g and the “Biodistribution Stomach” value ([5]; 60 min) was 1.72 ± 0.21 % ID/organ. The “Biodistribution Blood” value ([5]; 120 min) was 2.93 ± 0.30 % ID/g, the “Biodistribution Brain” value ([5]; 120 min) was 0.20 ± 0.08 % ID/g and the “Biodistribution Heart” value ([5]; 120 min) was 1.47 ± 0.48 % ID/g. The “Biodistribution Kidney” value ([5]; 120 min) was 1.93 ± 0.76 % ID/g, the “Biodistribution Liver” value ([5]; 120 min) was 4.19 ± 0.61 % ID/g and the “Biodistribution Lung” value ([5]; 120 min) was 2.30 ± 0.20 % ID/g. The “Biodistribution Muscle” value ([5]; 120 min) was 0.61 ±0.24 % ID/g, the “Biodistribution Spleen” value ([5]; 120 min) was 1.87 ± 0.28 % ID/g and the “Biodistribution Stomach” value ([5]; 120 min) was 3.48 ± 0.79 % ID/organ. The “Biodistribution Blood” value ([5]; 240 min) was 1.50 ± 0.13 % ID/g, the “Biodistribution Brain” value ([5]; 240 min) was 0.10 ± 0.02 % ID/g and the “Biodistribution Heart” value ([5]; 240 min) was 0.65 ± 0.16 % ID/g. For the same compound, the “Biodistribution Kidney” value ([5]; 240 min) was 1.34 ± 0.36 % ID/g, the “Biodistribution Liver” value ([5]; 240 min) was 3.06 ± 0.36 % ID/g and the “Biodistribution Lung” value ([5]; 240 min) was 1.43 ± 0.52 % ID/g. The “Biodistribution Muscle” value ([5]; 240 min) was 0.35 ± 0.09 % ID/g, the “Biodistribution Spleen” value ([5]; 240 min) was 1.37 ± 0.09 % ID/g and the “Biodistribution Stomach” value ([5]; 240 min) was 2.31 ± 1.44 % ID/organ.
